Measurements from patent US11179342B2, “Peptide coacervates and methods of use thereof” (NANYANG TECHNOLOGICAL UNIVERSITY, priority 2018, dated 2021).
Residues, ends and D or L forms follow the SMILES beside them.

Assays:
NIH3T3 mouse fibroblasts = assay: MTT assay; type: cell-based
Description: NIH3T3 mouse fibroblasts were used to estimate the cytotoxicity of DgHBP-2 peptide and coacervates. The fibroblasts were cultivated using Dulbecco's modified eagle medium supplemented with 10% of fetal bovine serum, 100 units/mL of penicillin and 100 μg/mL of streptomycin in a 37° C. incubator with 5% CO2. 100 μL of cells with a cell density of 1×10^4 cells/mL were seeded onto a 96-well plate (Thermo Fisher Scientific). After 24 hours, the cell culture media was substituted with 100 μL of fresh media containing different concentration of peptide or insulin-loaded coacervates. After another 24 hours, 10 μL of MTT solution (concentration: 5 mg/mL) was added into each well. Cell culture media and the excess MTT was then removed after 4 hours of incubation. 100 μL of DMSO was subsequently added into each well to dissolve the formazan crystals. The dissolved crystals were then measured at 570 nm on a 96-well microplate reader (Infinity M200, Tecan). Relative cell viability is calculated as:
[formula] where At, Ac, and Ab represent absorbance values of wells containing tested cells, control cells and DMSO, respectively. In Vitro Release Assay (Timepoint Assay)

[1] = Encapsulation of Dox and MNPs by coacervates; type: physicochemical; details: DgHBP-2-peptide coacervates
Description: Dox (Final concentration: 0.04 mg mL^−1) and MNPs (Final concentration: 0.008% v/v) were first added to phosphate buffer (pH 9.5 0.1M) to their final concentrations. DgHBP-2 peptide stock solution (10 mg mL^−1) was successively added to the buffer/drug mixture in a 1:9 ratio to trigger encapsulation and coacervation. Gentle pipetting was then done to mix the final mixture.

[2] = cited from earlier work

Row | encapsulation efficiency of Dox [1] [%] | unencapsulated Dox [1] [%] | Compound | cytotoxicity (NIH3T3 mouse fibroblasts) | pKa [2]
1 | – | – | CC(C)C[C@H](NC(=O)CNC(=O)[C@H](Cc1c[nH]cn1)NC(=O)CNC(=O)[C@H](Cc1ccc(O)cc1)NC(=O)[C@@H]1CCCN1C(=O)CNC(=O)[C@H](Cc1c[nH]cn1)NC(=O)CNC(=O)[C@H](Cc1ccc(O)cc1)NC(=O)[C@@H]1CCCN1C(=O)CNC(=O)[C@H](Cc1c[nH]cn1)NC(=O)CNC(=O)[C@H](Cc1ccc(O)cc1)NC(=O)[C@@H](NC(=O)CNC(=O)[C@H](Cc1c[nH]cn1)NC(=O)CNC(=O)[C@H](Cc1ccc(O)cc1)NC(=O)[C@@H](NC(=O)CNC(=O)[C@H](Cc1c[nH]cn1)NC(=O)CN)C(C)C)C(C)C)C(=O)N[C@@H](Cc1ccc(O)cc1)C(=O)N[C@@H](Cc1c[nH]c2ccccc12)C(=O)O [DgHBP-2 peptide, GHGVYGHGVYGHGPYGHGPYGHGLYW] (H-GHGVYGHGVYGHGPYGHGPYGHGLYW-OH) | negligible | –
2 | ~40 | 60 | COc1cccc2c1C(=O)c1c(O)c3c(c(O)c1C2=O)C[C@@](O)(C(=O)CO)C[C@@H]3O[C@H]1C[C@H](N)[C@H](O)[C@H](C)O1 [Dox, Doxorubicin] | – | ~8.46
